Test results published in ChEMBL document CHEMBL5058645, “Data for DCP probe JNJ-6204” (2022).

Tests used:
[1] = target: SRSF protein kinase 2 (Homo sapiens) (UniProt P78362); assay: SRPK2(h) Kinase panel; conditions: Compound concentration 1.0 uM, tested as the 2H-labelled form
[2] = target: Bone morphogenetic protein receptor type-2 (Homo sapiens) (UniProt Q13873); assay: BMPR2(h) Kinase panel; conditions: Compound concentration 1.0 uM, tested as the 2H-labelled form
[3] = target: NUAK family SNF1-like kinase 1 (Homo sapiens) (UniProt O60285); assay: ARK5(h) Kinase panel; conditions: Compound concentration 1.0 uM, tested as the 2H-labelled form
[4] = target: Tyrosine-protein kinase Lck (Homo sapiens) (UniProt P06239); assay: Lck(h) activated Kinase panel; conditions: Compound concentration 1.0 uM, tested as the 2H-labelled form
[5] = target: Alpha-1A adrenergic receptor (Homo sapiens) (UniProt P35348); conditions: Compound concentration 10.0 uM, tested as the 2H-labelled form
[6] = target: Homeodomain-interacting protein kinase 4 (Homo sapiens) (UniProt Q8NE63); assay: HIPK4(h) Kinase panel; conditions: Compound concentration 1.0 uM, tested as the 2H-labelled form
[7] = target: cGMP-dependent protein kinase 2 (Homo sapiens) (UniProt Q13237); assay: PRKG2(h) Kinase panel; conditions: Compound concentration 1.0 uM, tested as the 2H-labelled form
[8] = target: Serine/threonine-protein kinase 4 (Homo sapiens) (UniProt Q13043); assay: MST1(h) Kinase panel; conditions: Compound concentration 1.0 uM, tested as the 2H-labelled form
[9] = target: Phosphatidylinositol 4,5-bisphosphate 3-kinase catalytic subunit alpha isoform (Homo sapiens) (UniProt P42336); assay: PI3 Kinase (p110a/p85a)(h) Kinase panel; conditions: Compound concentration 1.0 uM, tested as the 2H-labelled form
[10] = target: Serine/threonine-protein kinase D3 (Homo sapiens) (UniProt O94806); assay: PKD3(h) Kinase panel; conditions: Compound concentration 1.0 uM, tested as the 2H-labelled form
[11] = target: Cyclin-dependent kinase 16 (Homo sapiens) (UniProt Q00536); assay: CDK16/cyclinY(h) Kinase panel; conditions: Compound concentration 1.0 uM, tested as the 2H-labelled form
[12] = target: Serine/threonine-protein kinase DCLK2 (Homo sapiens) (UniProt Q8N568); assay: DCAMKL2(h) Kinase panel; conditions: Compound concentration 1.0 uM, tested as the 2H-labelled form
[13] = target: Ephrin type-A receptor 4 (Homo sapiens) (UniProt P54764); assay: EphA4(h) Kinase panel; conditions: Compound concentration 1.0 uM, tested as the 2H-labelled form
[14] = target: Alpha-1D adrenergic receptor (Homo sapiens) (UniProt P25100); conditions: Compound concentration 10.0 uM, tested as the 2H-labelled form
[15] = target: Serine/threonine-protein kinase Nek9 (Homo sapiens) (UniProt Q8TD19); assay: NEK9(h) Kinase panel; conditions: Compound concentration 1.0 uM, tested as the 2H-labelled form
[16] = target: Casein kinase I isoform alpha (Homo sapiens, UniProt P48729); assay: CK1alpha(h) Kinase panel; conditions: Compound concentration 1.0 uM, tested as the 2H-labelled form
[17] = target: Ephrin type-A receptor 3 (Homo sapiens) (UniProt P29320); assay: EphA3(h) Kinase panel; conditions: Compound concentration 1.0 uM, tested as the 2H-labelled form
[18] = target: RAC-beta serine/threonine-protein kinase (Homo sapiens) (UniProt P31751); assay: PKBbeta (h) Kinase panel; conditions: Compound concentration 1.0 uM, tested as the 2H-labelled form
[19] = target: Serine/threonine-protein kinase/endoribonuclease IRE1 (Homo sapiens) (UniProt O75460); assay: IRE1(h) Kinase panel; conditions: Compound concentration 1.0 uM, tested as the 2H-labelled form
[20] = target: D(1A) dopamine receptor (Homo sapiens) (UniProt P21728); conditions: Compound concentration 10.0 uM, tested as the 2H-labelled form
[21] = target: Tyrosine-protein kinase HCK (Homo sapiens) (UniProt P08631); assay: Hck(h) Kinase panel; conditions: Compound concentration 1.0 uM, tested as the 2H-labelled form
[22] = target: RAC-gamma serine/threonine-protein kinase (Homo sapiens) (UniProt Q9Y243); assay: PKBgamma (h) Kinase panel; conditions: Compound concentration 1.0 uM, tested as the 2H-labelled form
[23] = target: Mitogen-activated protein kinase kinase kinase kinase 3 (Homo sapiens) (UniProt Q8IVH8); assay: MAP4K3(h) Kinase panel; conditions: Compound concentration 1.0 uM, tested as the 2H-labelled form
[24] = target: NUAK family SNF1-like kinase 2 (Homo sapiens) (UniProt Q9H093); assay: NUAK2(h) Kinase panel; conditions: Compound concentration 1.0 uM, tested as the 2H-labelled form
[25] = target: Tyrosine-protein kinase ABL1 (Homo sapiens) (UniProt P00519); assay: Abl(h) Kinase panel; conditions: Compound concentration 1.0 uM, tested as the 2H-labelled form
[26] = target: Calcium/calmodulin-dependent protein kinase type II subunit beta (Homo sapiens) (UniProt Q13554); assay: CaMKIIbeta(h) Kinase panel; conditions: Compound concentration 1.0 uM, tested as the 2H-labelled form
[27] = target: Serine/threonine-protein kinase PAK 2 (Homo sapiens) (UniProt Q13177); assay: PAK2(h) Kinase panel; conditions: Compound concentration 1.0 uM, tested as the 2H-labelled form
[28] = target: Tyrosine-protein kinase ABL2 (Homo sapiens) (UniProt P42684); assay: Arg(h) Kinase panel; conditions: Compound concentration 1.0 uM, tested as the 2H-labelled form
[29] = target: Serine/threonine-protein kinase PAK 3 (Homo sapiens) (UniProt O75914); assay: PAK3(h) Kinase panel; conditions: Compound concentration 1.0 uM, tested as the 2H-labelled form
[30] = target: Histamine H4 receptor (Homo sapiens) (UniProt Q9H3N8); conditions: Compound concentration 10.0 uM, tested as the 2H-labelled form
[31] = target: Ephrin type-B receptor 4 (Homo sapiens) (UniProt P54760); assay: EphB4(h) Kinase panel; conditions: Compound concentration 1.0 uM, tested as the 2H-labelled form
[32] = target: Serine/threonine-protein kinase haspin (Homo sapiens) (UniProt Q8TF76); assay: Haspin(h) Kinase panel; conditions: Compound concentration 1.0 uM, tested as the 2H-labelled form
[33] = target: Casein kinase I isoform gamma-1 (Homo sapiens) (UniProt Q9HCP0); assay: CK1gamma1(h) Kinase panel; conditions: Compound concentration 1.0 uM, tested as the 2H-labelled form
[34] = target: MAP/microtubule affinity-regulating kinase 3 (Homo sapiens) (UniProt P27448); assay: MARK3(h) Kinase panel; conditions: Compound concentration 1.0 uM, tested as the 2H-labelled form
[35] = target: Aurora kinase B (Homo sapiens) (UniProt Q96GD4); assay: Aurora-B(h) Kinase panel; conditions: Compound concentration 1.0 uM, tested as the 2H-labelled form
[36] = target: Serine/threonine-protein kinase 17A (Homo sapiens) (UniProt Q9UEE5); assay: DRAK1(h) Kinase panel; conditions: Compound concentration 1.0 uM, tested as the 2H-labelled form
[37] = target: Cyclin-dependent kinase 5 (Homo sapiens) (UniProt Q00535); assay: CDK5/p35(h) Kinase panel; conditions: Compound concentration 1.0 uM, tested as the 2H-labelled form
[38] = target: Serine/threonine-protein kinase 24 (Homo sapiens) (UniProt Q9Y6E0); assay: MST3(h) Kinase panel; conditions: Compound concentration 1.0 uM, tested as the 2H-labelled form
[39] = target: Serine/threonine-protein kinase DCLK3 (Homo sapiens) (UniProt Q9C098); assay: DCAMKL3(h) Kinase panel; conditions: Compound concentration 1.0 uM, tested as the 2H-labelled form
[40] = species on record: Homo sapiens; assay: MAPK2(h) Kinase panel; conditions: Compound concentration 1.0 uM, tested as the 2H-labelled form
[41] = target: Serine/threonine-protein kinase tousled-like 1 (Homo sapiens) (UniProt Q9UKI8); assay: TLK1(h) Kinase panel; conditions: Compound concentration 1.0 uM, tested as the 2H-labelled form
[42] = target: Aurora kinase A (Homo sapiens) (UniProt O14965); assay: Aurora-A(h) Kinase panel; conditions: Compound concentration 1.0 uM, tested as the 2H-labelled form
[43] = target: Serine/threonine-protein kinase Nek4 (Homo sapiens) (UniProt P51957); assay: NEK4(h) Kinase panel; conditions: Compound concentration 1.0 uM, tested as the 2H-labelled form
[44] = target: Serine/threonine-protein kinase 32C (Homo sapiens) (UniProt Q86UX6); assay: STK32C(h) Kinase panel; conditions: Compound concentration 1.0 uM, tested as the 2H-labelled form
[45] = target: Tyrosine-protein kinase SYK (Homo sapiens) (UniProt P43405); assay: Syk(h) Kinase panel; conditions: Compound concentration 1.0 uM, tested as the 2H-labelled form
[46] = target: Calcium/calmodulin-dependent protein kinase type II subunit alpha (Homo sapiens) (UniProt Q9UQM7); assay: CaMKIIalpha(h) Kinase panel; conditions: Compound concentration 1.0 uM, tested as the 2H-labelled form
[47] = target: Tyrosine-protein kinase JAK3 (Homo sapiens) (UniProt P52333); assay: JAK3(h) Kinase panel; conditions: Compound concentration 1.0 uM, tested as the 2H-labelled form
[48] = target: Serine/threonine-protein kinase ICK (Homo sapiens) (UniProt Q9UPZ9); assay: ICK(h) Kinase panel; conditions: Compound concentration 1.0 uM, tested as the 2H-labelled form
[49] = target: [Pyruvate dehydrogenase (acetyl-transferring)] kinase isozyme 4, mitochondrial (Homo sapiens) (UniProt Q16654); assay: PDHK4(h) Kinase panel; conditions: Compound concentration 1.0 uM, tested as the 2H-labelled form
[50] = target: Mitogen-activated protein kinase 8 (Homo sapiens) (UniProt P45983); assay: JNK1alpha1(h) Kinase panel; conditions: Compound concentration 1.0 uM, tested as the 2H-labelled form
[51] = target: Beta-1 adrenergic receptor (Homo sapiens) (UniProt P08588); conditions: Compound concentration 10.0 uM, tested as the 2H-labelled form
[52] = target: Sodium-dependent serotonin transporter (Homo sapiens) (UniProt P31645); conditions: Compound concentration 10.0 uM, tested as the 2H-labelled form

Measured: inhibition

Chain of MAP/microtubule affinity-regulating kinase 3 (Homo sapiens) (P27448 whole entry, looked up): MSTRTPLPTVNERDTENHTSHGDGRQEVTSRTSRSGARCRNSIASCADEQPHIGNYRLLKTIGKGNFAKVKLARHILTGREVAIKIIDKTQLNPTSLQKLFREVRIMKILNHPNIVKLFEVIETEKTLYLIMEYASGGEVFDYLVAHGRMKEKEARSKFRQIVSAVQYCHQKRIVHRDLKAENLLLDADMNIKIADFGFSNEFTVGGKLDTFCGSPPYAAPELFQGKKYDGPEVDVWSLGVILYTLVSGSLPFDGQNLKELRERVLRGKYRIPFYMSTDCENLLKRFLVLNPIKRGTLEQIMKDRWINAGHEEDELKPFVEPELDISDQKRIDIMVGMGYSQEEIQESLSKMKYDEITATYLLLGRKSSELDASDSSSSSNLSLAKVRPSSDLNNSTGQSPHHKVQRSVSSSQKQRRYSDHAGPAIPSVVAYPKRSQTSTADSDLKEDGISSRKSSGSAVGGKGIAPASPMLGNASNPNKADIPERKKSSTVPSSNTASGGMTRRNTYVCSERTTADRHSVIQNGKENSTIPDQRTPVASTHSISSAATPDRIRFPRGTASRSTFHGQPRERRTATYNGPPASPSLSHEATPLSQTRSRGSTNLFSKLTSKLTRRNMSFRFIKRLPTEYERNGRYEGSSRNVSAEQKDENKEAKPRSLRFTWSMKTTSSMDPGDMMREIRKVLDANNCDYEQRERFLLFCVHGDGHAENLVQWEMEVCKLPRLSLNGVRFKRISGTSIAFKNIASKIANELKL
Chain of RAC-beta serine/threonine-protein kinase (Homo sapiens) (P31751 whole entry): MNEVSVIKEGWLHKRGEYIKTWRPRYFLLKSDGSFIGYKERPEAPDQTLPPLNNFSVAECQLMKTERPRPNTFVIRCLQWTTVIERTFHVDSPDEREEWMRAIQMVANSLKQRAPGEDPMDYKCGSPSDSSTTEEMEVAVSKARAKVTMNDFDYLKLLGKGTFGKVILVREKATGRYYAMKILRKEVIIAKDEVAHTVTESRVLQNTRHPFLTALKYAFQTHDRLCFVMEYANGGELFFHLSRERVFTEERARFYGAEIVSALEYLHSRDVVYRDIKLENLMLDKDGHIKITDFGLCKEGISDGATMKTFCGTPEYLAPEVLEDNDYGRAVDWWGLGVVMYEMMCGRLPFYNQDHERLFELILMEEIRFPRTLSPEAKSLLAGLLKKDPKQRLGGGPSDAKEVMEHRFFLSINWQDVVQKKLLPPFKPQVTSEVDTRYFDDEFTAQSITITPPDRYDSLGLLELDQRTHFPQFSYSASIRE
Chain of Serine/threonine-protein kinase 17A (Homo sapiens) (Q9UEE5 whole entry): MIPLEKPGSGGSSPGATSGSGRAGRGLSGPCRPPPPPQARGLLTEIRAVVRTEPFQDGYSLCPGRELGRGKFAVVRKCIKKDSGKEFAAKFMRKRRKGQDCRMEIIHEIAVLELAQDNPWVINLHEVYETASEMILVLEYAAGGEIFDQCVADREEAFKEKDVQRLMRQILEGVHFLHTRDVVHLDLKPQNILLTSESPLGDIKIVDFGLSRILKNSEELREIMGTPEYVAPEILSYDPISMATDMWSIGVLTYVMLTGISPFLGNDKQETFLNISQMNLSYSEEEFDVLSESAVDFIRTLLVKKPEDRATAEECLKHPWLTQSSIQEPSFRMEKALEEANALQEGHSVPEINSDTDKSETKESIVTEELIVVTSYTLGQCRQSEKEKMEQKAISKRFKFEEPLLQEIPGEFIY
Chain of Homeodomain-interacting protein kinase 4 (Homo sapiens) (Q8NE63 whole entry): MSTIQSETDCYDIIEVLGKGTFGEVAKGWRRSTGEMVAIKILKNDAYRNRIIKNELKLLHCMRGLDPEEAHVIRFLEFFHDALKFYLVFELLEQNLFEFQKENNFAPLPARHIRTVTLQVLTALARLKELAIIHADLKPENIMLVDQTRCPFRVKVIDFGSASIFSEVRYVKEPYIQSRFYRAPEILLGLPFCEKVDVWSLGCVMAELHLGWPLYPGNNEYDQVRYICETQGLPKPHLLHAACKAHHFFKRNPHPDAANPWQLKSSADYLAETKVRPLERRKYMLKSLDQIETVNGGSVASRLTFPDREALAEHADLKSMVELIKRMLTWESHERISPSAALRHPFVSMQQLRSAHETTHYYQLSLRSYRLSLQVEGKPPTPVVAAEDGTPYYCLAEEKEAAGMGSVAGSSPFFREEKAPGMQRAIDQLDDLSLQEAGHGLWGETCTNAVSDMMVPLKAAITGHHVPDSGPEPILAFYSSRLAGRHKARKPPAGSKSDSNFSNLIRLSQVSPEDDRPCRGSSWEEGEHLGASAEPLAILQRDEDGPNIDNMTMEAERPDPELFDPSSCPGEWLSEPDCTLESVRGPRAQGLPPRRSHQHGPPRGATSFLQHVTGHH
Chain of Mitogen-activated protein kinase 8 (Homo sapiens) (P45983 whole entry): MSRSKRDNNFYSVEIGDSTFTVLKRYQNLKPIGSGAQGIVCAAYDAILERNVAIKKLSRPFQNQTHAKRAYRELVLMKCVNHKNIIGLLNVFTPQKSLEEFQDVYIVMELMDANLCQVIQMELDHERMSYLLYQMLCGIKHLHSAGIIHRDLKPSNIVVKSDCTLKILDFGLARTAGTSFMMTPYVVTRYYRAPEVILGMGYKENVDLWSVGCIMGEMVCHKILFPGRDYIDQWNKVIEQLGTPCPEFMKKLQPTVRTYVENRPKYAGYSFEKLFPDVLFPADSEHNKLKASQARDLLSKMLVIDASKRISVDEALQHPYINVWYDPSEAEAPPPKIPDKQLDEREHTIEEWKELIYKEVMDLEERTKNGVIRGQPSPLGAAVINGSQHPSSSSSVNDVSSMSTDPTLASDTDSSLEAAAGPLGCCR
Chain of Cyclin-dependent kinase 16 (Homo sapiens) (Q00536 whole entry): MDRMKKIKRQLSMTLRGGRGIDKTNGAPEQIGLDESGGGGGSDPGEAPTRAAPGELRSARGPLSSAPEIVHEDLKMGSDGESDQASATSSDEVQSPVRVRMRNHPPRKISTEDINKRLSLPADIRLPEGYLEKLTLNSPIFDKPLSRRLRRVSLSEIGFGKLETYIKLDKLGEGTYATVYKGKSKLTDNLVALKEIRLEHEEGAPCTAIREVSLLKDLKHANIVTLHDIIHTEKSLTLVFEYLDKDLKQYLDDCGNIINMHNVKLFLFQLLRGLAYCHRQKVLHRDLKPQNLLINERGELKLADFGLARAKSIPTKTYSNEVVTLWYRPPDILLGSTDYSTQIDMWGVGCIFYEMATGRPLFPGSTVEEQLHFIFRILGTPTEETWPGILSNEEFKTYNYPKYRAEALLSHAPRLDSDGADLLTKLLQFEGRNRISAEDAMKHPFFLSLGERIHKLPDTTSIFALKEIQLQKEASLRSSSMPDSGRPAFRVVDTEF
Chain of [Pyruvate dehydrogenase (acetyl-transferring)] kinase isozyme 4, mitochondrial (Homo sapiens) (Q16654 whole entry, looked up): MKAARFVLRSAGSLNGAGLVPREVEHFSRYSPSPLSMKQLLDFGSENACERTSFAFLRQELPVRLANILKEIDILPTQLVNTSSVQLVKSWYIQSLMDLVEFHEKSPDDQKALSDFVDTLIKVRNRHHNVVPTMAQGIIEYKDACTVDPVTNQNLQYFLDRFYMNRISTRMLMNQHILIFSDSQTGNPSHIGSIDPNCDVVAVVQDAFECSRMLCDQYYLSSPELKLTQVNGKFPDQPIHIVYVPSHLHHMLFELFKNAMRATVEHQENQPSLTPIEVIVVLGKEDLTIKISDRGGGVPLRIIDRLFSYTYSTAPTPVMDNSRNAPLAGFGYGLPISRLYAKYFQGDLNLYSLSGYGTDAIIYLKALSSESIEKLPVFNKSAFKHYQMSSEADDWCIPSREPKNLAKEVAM
Chain of Aurora kinase B (Homo sapiens) (Q96GD4 whole entry): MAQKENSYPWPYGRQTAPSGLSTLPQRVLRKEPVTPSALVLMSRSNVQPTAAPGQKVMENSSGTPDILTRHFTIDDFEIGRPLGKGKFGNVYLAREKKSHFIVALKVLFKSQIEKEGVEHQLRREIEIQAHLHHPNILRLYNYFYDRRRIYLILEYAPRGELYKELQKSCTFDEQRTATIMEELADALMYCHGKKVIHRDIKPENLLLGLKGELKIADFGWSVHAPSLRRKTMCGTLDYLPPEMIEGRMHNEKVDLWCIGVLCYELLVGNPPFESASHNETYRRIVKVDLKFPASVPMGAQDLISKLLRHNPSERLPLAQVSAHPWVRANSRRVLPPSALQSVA
Chain of Bone morphogenetic protein receptor type-2 (Homo sapiens) (Q13873 whole entry): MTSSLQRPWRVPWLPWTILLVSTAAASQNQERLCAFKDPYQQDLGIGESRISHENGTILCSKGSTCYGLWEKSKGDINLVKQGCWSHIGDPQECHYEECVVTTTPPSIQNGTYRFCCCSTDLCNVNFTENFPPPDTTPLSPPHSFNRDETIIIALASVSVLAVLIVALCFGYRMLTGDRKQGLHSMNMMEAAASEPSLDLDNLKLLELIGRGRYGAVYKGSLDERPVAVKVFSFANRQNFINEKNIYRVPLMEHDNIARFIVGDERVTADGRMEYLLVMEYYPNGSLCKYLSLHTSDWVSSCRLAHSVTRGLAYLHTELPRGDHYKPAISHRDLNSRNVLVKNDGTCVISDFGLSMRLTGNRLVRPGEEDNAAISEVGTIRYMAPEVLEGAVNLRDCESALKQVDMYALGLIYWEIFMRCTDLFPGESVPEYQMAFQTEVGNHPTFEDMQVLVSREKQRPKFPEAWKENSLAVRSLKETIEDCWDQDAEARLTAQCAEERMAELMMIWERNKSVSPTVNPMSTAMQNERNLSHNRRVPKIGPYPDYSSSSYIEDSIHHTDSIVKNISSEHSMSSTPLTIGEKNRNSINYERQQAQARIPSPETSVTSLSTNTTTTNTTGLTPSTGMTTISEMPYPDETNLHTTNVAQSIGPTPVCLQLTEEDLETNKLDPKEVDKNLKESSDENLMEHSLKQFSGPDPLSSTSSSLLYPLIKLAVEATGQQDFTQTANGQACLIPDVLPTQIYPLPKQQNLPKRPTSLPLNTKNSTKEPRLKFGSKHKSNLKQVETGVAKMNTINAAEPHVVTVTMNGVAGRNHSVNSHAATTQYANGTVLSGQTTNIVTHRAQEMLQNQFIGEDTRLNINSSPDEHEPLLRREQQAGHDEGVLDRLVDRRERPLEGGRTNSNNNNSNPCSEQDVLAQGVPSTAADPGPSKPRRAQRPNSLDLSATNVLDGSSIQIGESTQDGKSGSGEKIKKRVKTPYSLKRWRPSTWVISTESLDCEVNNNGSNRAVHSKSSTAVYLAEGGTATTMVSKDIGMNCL

CC1(C)Cn2nc(-c3ccc(F)cn3)c(-c3ccnc4[nH]ncc34)c2CO1
inactive: [1] -8% | [2] -7% | [3] 1% | [4] -10% | [5] 0.58% | [6] 8% | [7] 11% | [8] -4% | [9] 2% | [10] 17% | [11] 12% | [12] 37% | [13] 0% | [14] 8.27% | [15] 6% | [16] 73% | [17] -6% | [18] 0% | [19] 0% | [20] -1.8% | [21] 25% | [22] 18% | [23] -7% | [24] -1% | [25] -1% | [26] 18% | [27] -10% | [28] 7% | [29] 9% | [30] 24.7% | [31] -2% | [32] 9% | [33] 4% | [34] -2% | [35] -10% | [36] 14% | [37] 15% | [38] -2% | [39] -6% | [40] 6% | [41] 6% | [42] -6% | [43] 7% | [44] 4% | [45] -8% | [46] 0% | [47] 0% | [48] 10% | [49] -7% | [50] -6% | [51] -1.12% | [52] 2.66%
